Marks after values point to notes of the source that are not given here.
Experiments:
Type in all cases: cell-based
[1] = tested on: A549 lung cancer cells; assay: MTT cell growth and proliferation experiment, A549; parameters: key to Inhibition Rate: (control OD570 − test OD570)/control OD570, as fraction; conditions: concentration not given; for Inhibition Rate: fraction
Procedure, shortened: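 Cells in DMEM/10% calf serum were treated with retinoic acid derivatives at 1, 5 and 10 ug/ml (DMSO <0.1%) for 3 d, then with MTT for 4 h at 37° C. Read-out was OD570 after DMSO solubilisation, giving % growth inhibition versus control wells. A time-course at 10 umol/L ran for 1, 2, 3 and 7 days.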

[2] = tested on: liver cancer HepG2 cells; assay: MTT cell growth and proliferation experiment, HepG2; parameters: key to Inhibition Rate: (control OD570 − test OD570)/control OD570, as fraction; conditions: concentration not given; for Inhibition Rate: fraction
Procedure, shortened: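 After treatment, 20 ul/well of MTT (5 g/L) was added for 4 h at 37° C. The medium was then removed and 20 ul/well DMSO added to dissolve the crystals. Plates were shaken 10 min and read at 570 nm. Inhibition rate was (control OD570 − experimental OD570)/control OD570 × 100%, averaged over three experiments.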

[3] = tested on: A549 cells; assay: Differentiation index: CEA secretory volume of A549 cells; conditions: A549 culture supernatant, 10 ug/ml, 3 d
Procedure, shortened: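 Cells exposed 3 days to compounds at 10 μg/ml, alongside untreated, DMSO/ethanol solvent and 10 μg/ml fenretinide controls. Culture supernatant taken after centrifugation; CEA content measured by kit using enzyme kinetics.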

[4] = tested on: HepG2 cells; assay: AFP secretory volume of HepG2 cells; conditions: HepG2 cells
[5] = tested on: HepG2 cells; assay: γ-GT specific activity of HepG2 cells
[6] = tested on: HepG2 cells; assay: Cell cycle and apoptosis by flow cytometry, HepG2; conditions: HepG2, flow cytometry
[7] = tested on: NB4 cells; assay: Cell cycle analysis by flow cytometer, NB4; parameters: S %: dose or concentration left out as unconfirmed; conditions: 72 h
Procedure, shortened: (§1)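 NB4 and K562 cells in RPMI1640 with 10% FBS were exposed to compounds […] for 72 h. Then they were fixed in 70% cold ethanol and stained with 5 ug/ml propidium iodide for cell-cycle profiling by flow cytometry.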

[8] = tested on: K562 cells; assay: Cell cycle analysis by flow cytometer, K562; parameters: S %: dose or concentration left out as unconfirmed; conditions: 72 h
Procedure, shortened: as §1

[9] = A549, MTT time gradient, in DMSO, 1 d
[10] = A549, MTT time gradient, in DMSO, 2 d
[11] = A549, MTT time gradient, in DMSO, 3 d
[12] = A549, MTT time gradient, in DMSO, 7 d
[13] = A549, MTT time gradient, in ethanol, 1 d
[14] = A549, MTT time gradient, in ethanol, 2 d
[15] = A549, MTT time gradient, in ethanol, 3 d
[16] = A549, MTT time gradient, in ethanol, 7 d
[17] = A549, MTT, 3 d, Table 1 control drug in DMSO
[18] = A549, MTT, 3 d, Table 1 control drug in ethanol
[19] = HepG2, MTT time gradient, in DMSO, 1 d
[20] = HepG2, MTT time gradient, in DMSO, 2 d
[21] = HepG2, MTT time gradient, in DMSO, 3 d
[22] = HepG2, MTT time gradient, in DMSO, 7 d
[23] = HepG2, MTT time gradient, in ethanol, 1 d
[24] = HepG2, MTT time gradient, in ethanol, 2 d
[25] = HepG2, MTT time gradient, in ethanol, 3 d
[26] = HepG2, MTT, 3 d, Table 3 control drug in DMSO
[27] = HepG2, MTT, 3 d, Table 3 control drug in ethanol
[28] = HepG2, Table 5 repeat MTT, 3 days, DMSO
[29] = HepG2, Table 5 repeat MTT, 3 days, ethanol

CC1=C(/C=C/C(C)=C/C=C/C(C)=C/C(=O)Nc2ccc(O)cc2)C(C)(C)CCC1 [Fenretinide, reference compound]
OD Value (x ± s) [1, 9]: 0.883 ± 0.062 | Inhibition Rate [1, 9]: 0.037 | OD Value (x ± s) [1, 10]: 1.360 ± 0.052 | Inhibition Rate [1, 10]: 0.070 | OD Value (x ± s) [1, 11]: 0.845 ± 0.034 | Inhibition Rate [1, 11]: 0.089 | OD Value (x ± s) [1, 12]: 1.835 ± 0.030 | Inhibition Rate [1, 12]: 0.115 | OD Value (x ± s) [1, 13]: 0.887 ± 0.057 | Inhibition Rate [1, 13]: 0.033 | OD Value (x ± s) [1, 14]: 1.333 ± 0.046 | Inhibition Rate [1, 14]: 0.089 | OD Value (x ± s) [1, 15]: 0.836 ± 0.034 | Inhibition Rate [1, 15]: 0.099 | OD Value (x ± s) [1, 16]: 1.851 ± 0.030 | Inhibition Rate [1, 16]: 0.108 | OD Value (x ± s) [1, 17]: 1.724 ± 0.080 | Inhibition Rate [1, 17]: 0.076 | OD Value (x ± s) [1, 18]: 1.710 ± 0.056 | Inhibition Rate [1, 18]: 0.083 | OD Value (x ± s) [2, 19]: 1.61 ± 0.16 | Inhibition Rate [2, 19]: 0.09 | OD Value (x ± s) [2, 20]: 1.37 ± 0.07 | Inhibition Rate [2, 20]: 0.19 | OD Value (x ± s) [2, 21]: 1.07 ± 0.20 | Inhibition Rate [2, 21]: 0.13 | OD Value (x ± s) [2, 22]: 1.17 ± 0.06 | Inhibition Rate [2, 22]: 0.14 | OD Value (x ± s) [2, 23]: 1.67 ± 0.05 | Inhibition Rate [2, 23]: 0.05 | OD Value (x ± s) [2, 24]: 1.31 ± 0.09 | Inhibition Rate [2, 24]: 0.22 | OD Value (x ± s) [2, 25]: 1.06 ± 0.09 | Inhibition Rate [2, 25]: 0.14 | OD Value (x ± s) [2, 26]: 1.27 ± 0.25 | Inhibition Rate [2, 26]: 0.25 | OD Value (x ± s) [2, 27]: 1.28 ± 0.21 | Inhibition Rate [2, 27]: 0.24 | OD Value (x ± s) [2, 28]: 1.469 ± 0.078 | Inhibition Rate [2, 28]: 0.322* | OD Value (x ± s) [2, 29]: 1.422 ± 0.123 | Inhibition Rate [2, 29]: 0.343* | CEA ([3]; DMSO): 4.5 µg/L | CEA ([3]; ethanol): 4.3 µg/L | AFP ([4]; DMSO): 15.1 µg/L | AFP ([4]; ethanol): 14.9 µg/L | γ-GT ([5]; DMSO): 66.6 ± 0.5 U/L | γ-GT ([5]; ethanol): 61.0 ± 1.0 U/L | Apoptosis Rate (%) ([6]; in DMSO): 5.71% | G0-G1 (%) ([6]; in DMSO): 67.3% | G2-M (%) ([6]; in DMSO): 7.64% | S % ([6]; in DMSO): 19.8% | Apoptosis Rate (%) ([6]; in ethanol): 10.6% | G0-G1 (%) ([6]; in ethanol): 60.0% | G2-M (%) ([6]; in ethanol): 5.69% | S % ([6]; in ethanol): 24.1% | G1 % [7]: 63.25% | G2 % [7]: 4.03% | S % [7]: 33.72% | G1 % [8]: 33.5% | G2 % [8]: 9.0% | S % [8]: 57.5%
